Experimental data published in ChEMBL document CHEMBL1201862, “PubChem BioAssay data set” (2004).
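Values below derive from 48-hour exposures of cells grown in 96-well plates, with endpoints linearly interpolated between the two concentrations bracketing the appropriate inhibition level. GI50 marks 50% less growth.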 Activity calls are given as the source filed them. No stated cut-off is given here; in the data, active = GI50 up to about 1.1 µM and inactive = higher.

Columns and labels:
Assay in all cases: NCI-60 cell line screen, 48 h
SK-MEL-2 = test system: SK-MEL-2
MDA-N = test system: MDA-N
U-251 = test system: U-251
SF-539 = test system: SF-539
UACC-257 = test system: UACC-257
MCF7 = test system: MCF7
K562 = test system: K562
OVCAR-5 = test system: OVCAR-5
HOP-62 = test system: HOP-62
Malme-3M = test system: Malme-3M
IGROV-1 = test system: IGROV-1
A549 = test system: A549
MDA-MB-435 = test system: MDA-MB-435
HCT-116 = test system: HCT-116
SW-620 = test system: SW-620
HOP-92 = test system: HOP-92
MOLT-4 = test system: MOLT-4
TK-10 = test system: TK-10
RXF 393 = test system: RXF 393
NCI-H460 = test system: NCI-H460

Measured: GI50

Cc1nc(=O)[nH]c2s/c(=N/C3CCCCC3)n(C3CCCCC3)c(=O)c12
inactive: SK-MEL-2 > 100 µM | MDA-N > 100 µM | U-251 > 100 µM | SF-539 > 100 µM | UACC-257 > 100 µM | MCF7 > 100 µM | K562 > 100 µM | OVCAR-5 > 100 µM | HOP-62 > 100 µM | Malme-3M > 100 µM | IGROV-1 > 100 µM | A549 > 100 µM | MDA-MB-435 > 100 µM | HCT-116 > 100 µM | SW-620 > 100 µM | HOP-92 > 100 µM | MOLT-4 > 100 µM | TK-10 > 100 µM

N#CC(C#N)=Cc1ccc2c(c1)OC(Cl)O2 (configuration not stated)
inactive: SK-MEL-2 21.9 µM | MDA-N 16 µM | U-251 23.2 µM | SF-539 20.4 µM | UACC-257 21.7 µM | MCF7 24.4 µM | K562 11.8 µM | OVCAR-5 20.9 µM | Malme-3M 18.1 µM | A549 38.8 µM | MDA-MB-435 14.3 µM | HCT-116 18.9 µM | SW-620 > 10 µM | RXF 393 28.5 µM | MOLT-4 29.8 µM | TK-10 29.6 µM

COC(=O)CCCC(=O)NC1=C(Nc2ccc(OC)cc2)C(=O)c2ccccc2C1=O
inactive: SK-MEL-2 17.9 µM | MDA-N 20.7 µM | U-251 31.4 µM | SF-539 19.3 µM | NCI-H460 15.9 µM | UACC-257 18.1 µM | MCF7 17.1 µM | K562 23.9 µM | OVCAR-5 18.8 µM | Malme-3M 3.4 µM | IGROV-1 18 µM | A549 22.3 µM | MDA-MB-435 18.2 µM | HCT-116 19.7 µM | SW-620 40.7 µM | HOP-92 71 µM | MOLT-4 24.8 µM | TK-10 > 100 µM

CCCCC1=C(C(=O)N2CCOCC2)C2(OCCO2)C1Cl (configuration not stated)
inactive: SK-MEL-2 19.8 µM | MDA-N 14.8 µM | U-251 35.8 µM | SF-539 16.4 µM | UACC-257 24.3 µM | MCF7 20 µM | OVCAR-5 19.4 µM | HOP-62 35.2 µM | Malme-3M 33.6 µM | IGROV-1 32.4 µM | A549 20.6 µM | MDA-MB-435 21.7 µM | HCT-116 41.7 µM | SW-620 31 µM | HOP-92 50.2 µM | RXF 393 29.5 µM | MOLT-4 > 100 µM | TK-10 29.9 µM

Cc1ccc(C(=O)N/N=C(\N=N\c2ccccc2)c2ccc(N(C)C)cc2)cc1
inactive: SK-MEL-2 > 100 µM | MDA-N 29.4 µM | U-251 > 100 µM | SF-539 > 100 µM | NCI-H460 > 100 µM | UACC-257 > 100 µM | MCF7 48.8 µM | K562 52.2 µM | OVCAR-5 > 100 µM | IGROV-1 > 100 µM | A549 > 100 µM | MDA-MB-435 24 µM | HCT-116 > 100 µM | SW-620 > 100 µM | HOP-92 > 100 µM | MOLT-4 > 100 µM | TK-10 > 100 µM

O=c1c2cc(S(=O)(=O)Nc3ccccc3Cl)ccc2ncn1NS(=O)(=O)c1ccc(Br)cc1
inactive: SK-MEL-2 > 37.5 µM | MDA-N > 37.5 µM | U-251 > 37.5 µM | SF-539 > 37.5 µM | NCI-H460 > 37.5 µM | UACC-257 > 37.5 µM | MCF7 > 37.5 µM | K562 17.8 µM | OVCAR-5 > 37.5 µM | HOP-62 > 37.5 µM | Malme-3M > 37.5 µM | IGROV-1 > 37.5 µM | A549 > 37.5 µM | MDA-MB-435 > 37.5 µM | HCT-116 > 37.5 µM | SW-620 > 37.5 µM | HOP-92 > 37.5 µM | MOLT-4 > 37.5 µM | TK-10 > 37.5 µM

CC1(C)C2CCC1(C)C(N/C(=C(/C(Cl)=C(Cl)Cl)[N+](=O)[O-])n1nnc3ccccc31)C2 (configuration not stated)
inactive: SK-MEL-2 22.9 µM | MDA-N 36.4 µM | U-251 19.2 µM | SF-539 33.8 µM | NCI-H460 37.2 µM | UACC-257 38.6 µM | MCF7 32.4 µM | OVCAR-5 29.2 µM | HOP-62 24.9 µM | Malme-3M 19.3 µM | A549 33.7 µM | MDA-MB-435 21.4 µM | HCT-116 43 µM | SW-620 27.2 µM | RXF 393 19.2 µM

COC(=O)C1CCC(=O)N1CN(C(C)=O)c1ccccc1 (configuration not stated)
inactive: SK-MEL-2 > 100 µM | MDA-N > 100 µM | U-251 > 100 µM | SF-539 > 100 µM | NCI-H460 > 100 µM | UACC-257 > 100 µM | MCF7 > 100 µM | K562 > 100 µM | OVCAR-5 > 100 µM | HOP-62 > 100 µM | Malme-3M > 100 µM | IGROV-1 > 100 µM | A549 > 100 µM | MDA-MB-435 > 100 µM | HCT-116 > 100 µM | SW-620 > 100 µM | HOP-92 > 100 µM | MOLT-4 > 100 µM | TK-10 > 100 µM

CN1Cc2ccccc2/C=C\c2ccccc21
inactive: SK-MEL-2 25.4 µM | MDA-N 42.2 µM | U-251 > 100 µM | SF-539 > 100 µM | NCI-H460 42.7 µM | UACC-257 > 100 µM | MCF7 24.7 µM | HOP-62 > 100 µM | Malme-3M 51.4 µM | IGROV-1 > 100 µM | A549 50.1 µM | MDA-MB-435 39.8 µM | HCT-116 78.2 µM | SW-620 > 100 µM | HOP-92 28 µM | RXF 393 30.1 µM | TK-10 70.5 µM

CC(=O)C1C(=O)C(=O)N(c2cccc([N+](=O)[O-])c2)C1=O (configuration not stated)
inactive: SK-MEL-2 > 100 µM | MDA-N > 100 µM | U-251 > 100 µM | SF-539 > 100 µM | NCI-H460 > 100 µM | UACC-257 > 100 µM | MCF7 > 100 µM | OVCAR-5 > 100 µM | HOP-62 > 100 µM | IGROV-1 > 100 µM | A549 > 100 µM | MDA-MB-435 > 100 µM | HCT-116 > 100 µM | SW-620 > 100 µM | HOP-92 > 100 µM | RXF 393 > 100 µM | MOLT-4 > 100 µM | TK-10 > 100 µM

O=C1c2ccccc2-c2oc(=O)c3ccccc3c21
inactive: SK-MEL-2 > 100 µM | MDA-N > 100 µM | U-251 > 100 µM | SF-539 > 100 µM | NCI-H460 > 100 µM | UACC-257 > 100 µM | MCF7 > 100 µM | OVCAR-5 > 100 µM | HOP-62 > 100 µM | IGROV-1 32.7 µM | MDA-MB-435 > 100 µM | HCT-116 > 100 µM | SW-620 > 100 µM | HOP-92 > 100 µM | RXF 393 > 100 µM | MOLT-4 > 100 µM | TK-10 > 100 µM
